# Marks after values point to notes of the source that are not given here.
# Legend:
# [1] = rat, in vivo
# [2] = rat, in vivo; remark: listed apart in the source
substance,measurement,setting,value
Deoxynivalenol [DON],Consumption food Means ± Standard error,[1],511 ± 5.71 ^b
same,Effect on consumption of food,[2],affected the consumption of food
same,Food consumption Means ± standard error,[2],569 ± 19.1 ^b
same,Food consumption from 0 to 7 days,[2],98 ± 4.75 ^a
same,Food consumption from 7 to 14 days,[2],109 ± 4.84 ^a
same,Food consumption from 14 to 21 days,[2],109 ± 5.41 ^b
same,Food consumption from 21 to 28 days,[2],121 ± 4.83 ^b
same,Food consumption from 28 to 35 days,[2],132 ± 3.10 ^b
same,Food conversion Means ± standard error,[2],5.22 ± 0.195 ^b
same,Gain of weight from 0 to 7 days,[2],24 ± 2.45 ^b
same,Gain of weight from 7 to 14 days,[2],24 ± 3.04 ^a
same,Gain of weight from 14 to 21 days,[2],21 ± 2.92 ^a
same,Gain of weight from 21 to 28 days,[2],13 ± 3.89 ^b
same,Gain of weight from 28 to 35 days,[2],27 ± 3.63 ^a
same,Weight gain Means ± standard error,[2],109 ± 6.61 ^b g
